Several values for one entry are separate records, joined by “and”; a condition that tells them apart may be missing. Equal entries are not always repeated.
Experiments:
[1] = tested on: anti-type II collagen IgG1 and IgG2a; test: Serum anti-collagen antibody levels (ELISA); assay type: in vivo, DBA/1 mice
Protocol: ELISA plates (Nunc, Uxbridge, UK) were coated with 2 μg/ml of bovine CII dissolved overnight in Tris Buffer (0.05 M Tris, containing 0.2 M NaCl, pH 7.4) blocked with 2% bovine serum albumin (BSA) and then incubated with serial dilutions of test sera. A reference sample was included on each plate. Bound total IgG, IgG1 or IgG2a was detected by incubation with HRP-conjugated sheep anti-mouse IgG, IgG1 or IgG2a, followed by TMB substrate. Optical density was measured at 450 nm.

Cyclooxygenase COX-2 = target: T1, Cyclooxygenase COX-2 (Homo sapiens, UniProt P35354); test: 118010 Cyclooxygenase COX-2 biochemical assay (EIA quantitation of PGE2)
T1 construct: host or cells: insect Sf21
T1 sequence (P35354 18-604): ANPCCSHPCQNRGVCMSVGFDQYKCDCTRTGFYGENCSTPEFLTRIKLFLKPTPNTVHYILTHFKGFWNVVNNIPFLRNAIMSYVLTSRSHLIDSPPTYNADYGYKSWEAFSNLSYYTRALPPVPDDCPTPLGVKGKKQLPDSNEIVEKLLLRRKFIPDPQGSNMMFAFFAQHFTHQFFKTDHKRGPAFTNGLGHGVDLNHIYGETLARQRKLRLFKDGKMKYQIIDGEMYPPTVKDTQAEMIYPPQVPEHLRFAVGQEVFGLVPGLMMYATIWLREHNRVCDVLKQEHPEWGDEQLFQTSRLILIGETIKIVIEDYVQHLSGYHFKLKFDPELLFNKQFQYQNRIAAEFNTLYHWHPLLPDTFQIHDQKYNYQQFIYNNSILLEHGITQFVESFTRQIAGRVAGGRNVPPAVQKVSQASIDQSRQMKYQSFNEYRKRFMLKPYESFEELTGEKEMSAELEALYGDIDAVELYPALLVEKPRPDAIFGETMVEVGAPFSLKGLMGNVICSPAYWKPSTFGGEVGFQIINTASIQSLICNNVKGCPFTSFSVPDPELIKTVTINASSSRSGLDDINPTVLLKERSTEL
Protocol: Methods employed in this study have been adapted from the scientific literature to maximize reliability and reproducibility. […] Assays were performed under conditions described in the accompanying “Methods” section of this report. The literature references for each assay are in the “Literature References” section. If either of these sections were not originally requested with the accompanying report, please contact us at the number below for a printout of either of these report sections.
Biochemical assay results are presented as the percent inhibition of specific binding or activity throughout the report.

[2] = 11,484 patients with restenosis following percutaneous coronary intervention; cited from earlier work
[3] = tested on: acetic acid-induced writhing; test: Analgesia, acetic acid writhing in mice (Example 3); assay type: in vivo, mouse; details: for No. of Writhing Average: group of 5 mice; for % Inhibition: relative to vehicle control; for No. of Writhing Individual: single mice
Protocol: 3-Hydroxyanthranilic acid was evaluated for possible analgesic activity in mouse acetic acid-induced pain response assay.
3-Hydroxyanthranilic acid was purchased from Sigma (USA) by MDS Pharma Services-Taiwan Ltd. and administered orally at the doses of 400, 200 and 100 mg/kg for analgesia, acetic acid-induced writhing assay. 2% Tween 80 was used as the vehicle.
Male CD-1 (Crl.) mice provided by BioLasco Taiwan (under Charles River Laboratories Technology Licensee) were used. Space allocation for 10 animals was 29×18×13 cm. All animals were maintained in a controlled temperature (23° C.-24° C.) and humidity (60%-70%) environment with 12 hours light dark cycles for at least one week in MDS Pharma Services—Taiwan Laboratory prior to use. Free access to standard lab chow for Mice (LabDiet Rodent Diet, PMI Nutrition International, USA) and tap water was granted. All aspects of this work including housing, experimentation and disposal of animals were performed in general accordance with the Guide for the Care and Use of Laboratory Animals (National Academy Press, Washington, D.C., 1996).
Test substance was administered orally to groups of 5 CD-1 (Crl.) derived male or female mice weighing 24±2 g, 2 hour before injection of acetic acid (0.5%, 20 ml/kg IP). Reduction in the number of writhes by 50 percent or more (≧50%) per group of animals observed during the 5 to 10 minute period after acetic acid administration, relative to a vehicle-treated control group, indicates possible analgesic activity.
Test substance was administered orally to groups of 5 mice 1 hour before injection of 0.5% Acetic Acid (20 ml/kg IP). The number of writhing per group of animals observed during the 5 to 10 minute period after acetic acid challenge was observed. Reduction in the number of writhing by 50 percent or more (≧50%) relative to the vehicle-treated control group indicates possible analgesic activity.

Row | effect on the activity of the COX-2 enzyme (Cyclooxygenase COX-2) | inhibition at 10 µM (Cyclooxygenase COX-2; 10 μM, n=2) [%] | Structure (SMILES) | anti-collagen IgG1 or IgG2a levels in sera ([1]; 200 mg/kg/day from the day of immunisation) | anti-type II collagen IgG1 and IgG2a levels in sera ([1]; established CIA, 100, 200 or 400 mg/kg/day over 10 days) | adverse cardiovascular events [2] | No. of Writhing Average ([3]; 100 mg/kg PO) | % Inhibition ([3]; 100 mg/kg PO) [%] | No. of Writhing Individual ([3]; 100 mg/kg PO) | No. of Writhing Average ([3]; 200 mg/kg PO) | % Inhibition ([3]; 200 mg/kg PO) [%] | No. of Writhing Individual ([3]; 200 mg/kg PO) | No. of Writhing Individual ([3]; 400 mg/kg PO before acetic acid (0.5%, 20 ml/kg IP), 5 to 10 minute period) | No. of Writhing Average ([3]; 400 mg/kg PO) | % Inhibition ([3]; 400 mg/kg PO) [%] | significant analgesic activity (≧50% inhibition of writhing relative to vehicle) ([3]; 400, 200 and 100 mg/kg PO)
1 | no effect | 0 | COc1ccc(/C=C/C(=O)Nc2ccccc2C(=O)O)cc1OC [Tranilast, 2-[[3-(3,4-dimethoxyphenyl)-1-oxo-2-propenyl]amino]benzoic acid] | no change | no differences | no significant increase |  |  |  |  |  |  |  |  |  | 
2 |  |  | Nc1c(O)cccc1C(=O)O [3-Hydroxyanthranilic acid] |  |  |  | 13 | 0 | 18 and 12 (2×) and 13 and 10 | 12 | 8 | 16 and 9 and 12 and 10 and 15 | 5 (2×) and 6 and 14 and 12 | 8 | 38 | did not demonstrate any significant analgesic activity

Reference: patent US20090197957A1, “Methods and compositions for the treatment of pain” (Nuon Therapeutics, Inc., priority 2005, published 2009)
